We go through five compounds from ChEMBL document CHEMBL1121846, “Synthesis and pharmacological evaluation of sulfonium analogues of dopamine: nonclassical dopamine agonists” (J Med Chem, 1981).

Structures are written as SMILES.

Experiment [1] is filed under the species Rattus norvegicus. The experiment is described as follows: Contralateral rotation produced by intrastriatal injection in rats with unilateral 6-hydroxydopamine-induced lesions of the substantia nigra at 10 nmol. It is filed as functional.
For experiment [2], the species on record is Rattus norvegicus. The experiment is described as follows: Maximal degree of inhibition was determined from displacement of [3H]dopamine binding to rat brain striatal membrane. The format is functional.
Experiment [3] is filed under the species Rattus norvegicus. The experiment is described as follows: Compound concentration required to reduce specific binding of tritiated dopamine to rat brain striatal membrane.
Experiment [4] is filed under the species Rattus norvegicus. Kind of experiment: Contralateral rotation produced by intrastriatal injection in rats with unilateral 6-hydroxydopamine-induced lesions of the substantia nigra at 30 nmol; turns/5 min. It is filed as functional.
The species named for experiment [5] is Rattus norvegicus. Kind of experiment: Contralateral rotation produced by intrastriatal injection in rats with unilateral 6-hydroxydopamine-induced lesions of the substantia nigra at 90 nmol; turns/5 min. It is filed as functional.
The species named for experiment [6] is Rattus norvegicus. Kind of experiment: Contralateral rotation produced by intrastriatal injection in rats with unilateral 6-hydroxydopamine-induced lesions of the substantia nigra at 10 nmol; turns/5 min. The format is functional.
For experiment [7], the species on record is Rattus norvegicus. The experiment is described as follows: Compound concentration required to reduce specific binding of tritiated dopamine to rat brain striatal membrane by 50 % was reported.
The species entered for experiment [8] is Rattus norvegicus. The note with it: Striatum, 1 uM.
The species named for experiment [9] is Rattus norvegicus. The experiment is described as follows: Maximal degree of inhibition at 3-30 uM concentration was determined from displacement of [3H]-dopamine binding to rat brain striatal membrane. It is filed as functional. Background: Loss of bound radioactivity is the signal in a displacement assay; it reports binding, not function.
For experiment [10], the species on record is Rattus norvegicus. The experiment is described as follows: Contralateral rotation produced by intrastriatal injection in rats with unilateral 6-hydroxydopamine-induced lesions of the substantia nigra at 2 microL; turns/5 min. The format is functional.

With `C[S+](C)CC(=O)c1ccc(O)c(O)c1.[I-]`, the Rate of rotation in the experiment filed under Rattus norvegicus [1] turned out to be 8.4 turns 5min-1; in the experiment listed under Rattus norvegicus [4] it was 25.33; in the experiment listed under Rattus norvegicus [5] it was 38.83. Besides, the inhibition (usually the change of the read-out against control, counted positive when it falls) in the experiment listed under Rattus norvegicus [2] came out at 29%. Further, the IC50 (as a rule, the concentration that inhibits the measured activity by half) in the experiment listed under Rattus norvegicus [3] was 370 nM.
For `NCCc1ccc(O)c(O)c1` [DOPAMINE], the Rate of rotation in the experiment filed under Rattus norvegicus [6] was 39.75. In addition, in the experiment listed under Rattus norvegicus [7], the IC50 was found to be 29 nM. In the experiment listed under Rattus norvegicus [8], this compound displayed a Total binding of 72%.
In turn, `C[S+](C)C` displayed an inhibition in the experiment filed under Rattus norvegicus [9] of 9%.
`O=C1O[C@H]([C@@H](O)CO)C(O)=C1O` [ASCORBIC ACID] yielded a Rate of rotation in the experiment filed under Rattus norvegicus [10] of 4.5.
In turn, `C[S+](C)CCc1ccc(O)c(O)c1.[I-]` gave an inhibition in the experiment listed under Rattus norvegicus [2] of 19%. In addition, the half-maximal inhibitory concentration (IC50) in the experiment filed under Rattus norvegicus [3] stood at 440 nM. Moreover, the Rate of rotation in the experiment listed under Rattus norvegicus [4] is given as 20.75; in the experiment filed under Rattus norvegicus [5], 31.5; in the experiment filed under Rattus norvegicus [6], 11.25.
